From patent US10577308B2, “Sodium channel modulators” (The Florey Institute of Neuroscience and Mental Health, priority 2015, dated 2020)
Like-named read-outs stand apart in the source and are kept apart here.

Assays:
hNav1.6 = hNav1.6 (Homo sapiens (Human), UniProt Q9UQD0); test: Automated patch clamp (IonWorks Quattro) block of hNav1.6 channels in CHO cells; type: cell-based
Excerpt: (§1) FIG. 1 depicts the voltage sequence used to measure inhibitory activity of compounds as described in Example 3. An automated patch clamp screening assay was used to measure the inhibitory effect (potency) of compounds in three conformational states of the sodium channel: (1) the tonic state (TP1); (2) the frequency-dependent (10 Hz) state (TP11) and (3) the inactivated state (TP12).
(§2) Test Protocol for Determining the Potency of Compounds on Nav1.2 and Nav1.6 Subtypes of Voltage-Gated Sodium Ion Channels Expressed in Mammalian Cells
(§3) Cell culture procedures: Chinese hamster ovary (CHO) cells were stably transfected with the cDNA sequence of either the human SCN2A or SCN8A genes to create hNav1.2 or hNav1.6 cells respectively. The cell lines were cultured in Ham's F-12 medium supplemented with 10% fetal bovine serum and antibiotics in a tissue incubator at 37° C. under a humidified air/CO2 mixture (95/5 v/v). On the day of the experiment, cells were washed twice with Hank's balanced salt solution, treated with trypsin, and resuspended in fresh culture media at a density of 4−6×10^6 cells in 20 ml. Immediately before placing in the IonWorks Quattro instrument, cells were washed in Hank's balanced salt solution to remove culture medium and re-suspended in 3 ml of Hank's balanced salt solution.
(§4) Automated patch clamp recordings of cells using the IonWorks Quattro Instrument: The assay used a 384 microwell plate, which enabled 20 compounds to be studied at four different concentrations in quadruplicate as well as allowing a vehicle control group and a positive control group using mexiletine at 8 different concentrations. Cells were added to the wells of the Population Patch Clamp planar electrode using a 48-channel pipettor in a volume of 6 μL, per well. After 5 minutes incubation at ambient temperature with compounds or vehicle, membrane currents were recorded using the patch clamp amplifier. The pulse pattern was repeated twice, before and after compound addition and peak current amplitudes were measured at three test pulses, TP1, TP11 and TP12 to measure Tonic Block, 10 Hz Frequency-dependent Block and Inactivation State Block, respectively.
(§5) Data analysis: Data acquisition and analyses were carried out using the IonWorks Quattro system operation software which uses an algorithm to correct data for leak currents. Concentration-response curves were fitted by non-linear least squares regression allowing calculation of an IC50 value (μM), being the concentration of the compound producing half-maximal inhibition.

hNav1.2 = hNav1.2 (Homo sapiens (Human), UniProt Q99250); test: Automated patch clamp (IonWorks Quattro) block of hNav1.2 channels in CHO cells; type: cell-based
Excerpt: as §1, §2, §3, §4, §5

[1] = 10 Hz frequency-dependent block (TP11), read-out: IC50 Nav1.6 10 Hz block
[2] = Inactivated state block (TP12), read-out: IC50 Nav1.6 Inactivated state block
[3] = Tonic block (TP1), read-out: IC50 Nav1.6 Tonic block
[4] = 10 Hz frequency-dependent block (TP11), read-out: IC50 Nav1.2 10 Hz block
[5] = Inactivated state block (TP12), read-out: IC50 Nav1.2 Inactivated state block
[6] = Tonic block (TP1), read-out: IC50 Nav1.2 Tonic block

Sequence of hNav1.6 (Q9UQD0 whole entry): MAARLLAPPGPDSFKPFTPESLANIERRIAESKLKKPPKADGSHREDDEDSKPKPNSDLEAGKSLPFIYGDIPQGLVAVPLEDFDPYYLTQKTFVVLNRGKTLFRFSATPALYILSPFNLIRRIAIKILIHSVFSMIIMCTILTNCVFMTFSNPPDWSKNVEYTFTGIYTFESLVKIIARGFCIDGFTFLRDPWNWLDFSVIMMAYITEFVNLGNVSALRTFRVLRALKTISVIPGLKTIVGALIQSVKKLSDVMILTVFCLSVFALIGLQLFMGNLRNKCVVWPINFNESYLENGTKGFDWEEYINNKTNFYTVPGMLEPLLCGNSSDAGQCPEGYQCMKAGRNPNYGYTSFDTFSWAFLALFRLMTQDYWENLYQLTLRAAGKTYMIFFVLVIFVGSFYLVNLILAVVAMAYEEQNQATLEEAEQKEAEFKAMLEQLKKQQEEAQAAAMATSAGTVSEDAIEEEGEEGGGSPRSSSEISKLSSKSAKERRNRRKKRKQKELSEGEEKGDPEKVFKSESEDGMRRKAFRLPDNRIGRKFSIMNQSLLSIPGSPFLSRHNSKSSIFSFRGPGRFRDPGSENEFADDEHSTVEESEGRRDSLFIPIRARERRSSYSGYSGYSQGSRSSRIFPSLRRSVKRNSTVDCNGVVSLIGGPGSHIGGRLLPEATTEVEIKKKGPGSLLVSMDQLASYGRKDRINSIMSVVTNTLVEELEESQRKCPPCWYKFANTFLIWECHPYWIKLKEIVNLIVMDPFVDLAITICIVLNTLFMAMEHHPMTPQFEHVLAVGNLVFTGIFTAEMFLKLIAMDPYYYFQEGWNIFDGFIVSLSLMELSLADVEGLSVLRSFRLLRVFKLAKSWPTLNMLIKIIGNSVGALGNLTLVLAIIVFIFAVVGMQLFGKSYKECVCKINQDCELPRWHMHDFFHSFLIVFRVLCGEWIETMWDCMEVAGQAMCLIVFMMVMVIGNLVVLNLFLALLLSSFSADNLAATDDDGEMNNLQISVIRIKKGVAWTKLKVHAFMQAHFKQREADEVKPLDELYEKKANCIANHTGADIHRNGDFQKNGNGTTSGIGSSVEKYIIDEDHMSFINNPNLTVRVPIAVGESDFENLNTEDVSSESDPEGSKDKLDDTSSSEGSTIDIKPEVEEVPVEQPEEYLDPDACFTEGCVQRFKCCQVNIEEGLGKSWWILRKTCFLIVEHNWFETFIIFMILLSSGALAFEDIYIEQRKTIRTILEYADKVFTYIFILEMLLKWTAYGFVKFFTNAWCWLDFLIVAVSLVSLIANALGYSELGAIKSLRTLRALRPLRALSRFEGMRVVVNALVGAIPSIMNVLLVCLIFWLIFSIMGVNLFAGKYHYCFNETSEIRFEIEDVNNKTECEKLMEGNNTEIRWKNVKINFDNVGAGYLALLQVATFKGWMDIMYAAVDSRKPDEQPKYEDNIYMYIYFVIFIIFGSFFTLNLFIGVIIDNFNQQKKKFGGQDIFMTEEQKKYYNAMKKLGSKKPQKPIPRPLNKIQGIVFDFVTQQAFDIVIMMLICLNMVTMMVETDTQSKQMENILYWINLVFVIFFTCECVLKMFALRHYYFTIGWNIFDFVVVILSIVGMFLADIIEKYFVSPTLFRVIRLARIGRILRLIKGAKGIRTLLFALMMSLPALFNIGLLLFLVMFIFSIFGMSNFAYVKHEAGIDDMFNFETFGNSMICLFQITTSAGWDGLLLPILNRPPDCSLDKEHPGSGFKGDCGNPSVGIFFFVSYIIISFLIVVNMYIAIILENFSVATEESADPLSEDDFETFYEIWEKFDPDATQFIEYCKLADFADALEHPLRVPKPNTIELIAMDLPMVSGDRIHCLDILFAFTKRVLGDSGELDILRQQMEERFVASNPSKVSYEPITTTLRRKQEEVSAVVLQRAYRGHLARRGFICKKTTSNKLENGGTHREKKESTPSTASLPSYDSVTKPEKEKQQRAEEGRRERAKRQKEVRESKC
Sequence of hNav1.2 (Q99250 whole entry): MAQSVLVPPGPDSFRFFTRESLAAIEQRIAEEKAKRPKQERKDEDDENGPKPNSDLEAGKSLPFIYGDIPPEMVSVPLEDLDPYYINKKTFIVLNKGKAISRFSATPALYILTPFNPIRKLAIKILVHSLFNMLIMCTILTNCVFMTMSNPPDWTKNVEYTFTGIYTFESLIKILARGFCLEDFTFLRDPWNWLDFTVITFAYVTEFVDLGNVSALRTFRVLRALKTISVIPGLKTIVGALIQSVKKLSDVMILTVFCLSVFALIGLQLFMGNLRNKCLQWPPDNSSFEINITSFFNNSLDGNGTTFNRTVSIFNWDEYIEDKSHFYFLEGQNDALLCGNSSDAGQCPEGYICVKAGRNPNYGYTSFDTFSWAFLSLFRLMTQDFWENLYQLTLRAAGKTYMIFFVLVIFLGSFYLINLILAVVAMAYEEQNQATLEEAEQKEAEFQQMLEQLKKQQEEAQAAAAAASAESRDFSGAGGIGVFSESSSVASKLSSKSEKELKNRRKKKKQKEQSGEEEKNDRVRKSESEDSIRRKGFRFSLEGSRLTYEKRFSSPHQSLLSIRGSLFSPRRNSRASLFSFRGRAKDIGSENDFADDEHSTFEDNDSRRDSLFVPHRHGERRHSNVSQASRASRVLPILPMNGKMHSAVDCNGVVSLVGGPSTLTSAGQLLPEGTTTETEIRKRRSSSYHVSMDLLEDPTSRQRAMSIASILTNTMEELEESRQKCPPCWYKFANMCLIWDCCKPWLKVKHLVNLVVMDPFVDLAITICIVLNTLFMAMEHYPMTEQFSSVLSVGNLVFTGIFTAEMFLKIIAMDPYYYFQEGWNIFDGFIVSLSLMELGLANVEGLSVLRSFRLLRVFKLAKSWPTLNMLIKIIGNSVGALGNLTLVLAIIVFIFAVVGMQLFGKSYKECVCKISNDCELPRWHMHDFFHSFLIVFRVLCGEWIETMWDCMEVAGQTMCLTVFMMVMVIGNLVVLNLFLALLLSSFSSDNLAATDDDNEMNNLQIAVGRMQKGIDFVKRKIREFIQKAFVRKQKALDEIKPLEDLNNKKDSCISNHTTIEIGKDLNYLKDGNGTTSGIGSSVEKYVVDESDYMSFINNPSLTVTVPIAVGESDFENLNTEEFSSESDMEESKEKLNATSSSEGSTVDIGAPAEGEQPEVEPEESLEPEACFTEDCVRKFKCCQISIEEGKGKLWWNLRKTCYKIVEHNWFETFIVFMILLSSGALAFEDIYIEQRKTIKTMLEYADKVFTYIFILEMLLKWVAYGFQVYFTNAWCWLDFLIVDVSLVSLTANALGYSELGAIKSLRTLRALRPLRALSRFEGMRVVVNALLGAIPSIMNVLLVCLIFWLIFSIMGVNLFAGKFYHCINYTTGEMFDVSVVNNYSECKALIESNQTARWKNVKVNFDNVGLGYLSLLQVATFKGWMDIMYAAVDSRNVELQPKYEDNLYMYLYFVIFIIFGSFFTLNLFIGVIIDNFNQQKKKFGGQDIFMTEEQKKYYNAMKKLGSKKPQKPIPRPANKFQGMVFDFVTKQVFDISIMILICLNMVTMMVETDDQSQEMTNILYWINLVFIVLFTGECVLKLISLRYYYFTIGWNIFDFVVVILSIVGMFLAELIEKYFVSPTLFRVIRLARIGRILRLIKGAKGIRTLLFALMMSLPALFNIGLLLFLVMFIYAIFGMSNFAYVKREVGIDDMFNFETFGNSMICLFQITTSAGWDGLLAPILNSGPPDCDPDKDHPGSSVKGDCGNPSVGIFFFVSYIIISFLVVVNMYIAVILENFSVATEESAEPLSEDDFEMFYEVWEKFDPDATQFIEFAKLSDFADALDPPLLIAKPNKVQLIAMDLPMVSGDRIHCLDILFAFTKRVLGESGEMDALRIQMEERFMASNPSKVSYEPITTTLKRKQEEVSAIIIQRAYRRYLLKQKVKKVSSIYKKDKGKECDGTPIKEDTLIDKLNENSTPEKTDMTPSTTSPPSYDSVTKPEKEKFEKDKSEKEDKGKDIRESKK

| IC50 (hNav1.6; [1]) [µM] | IC50 (hNav1.6; [2]) [µM] | IC50 (hNav1.6; [3]) [µM] | IC50 (hNav1.2; [4]) [µM] | IC50 (hNav1.2; [5]) [µM] | IC50 (hNav1.2; [6]) [µM] | Compound |
| --- | --- | --- | --- | --- | --- | --- |
| 0.4 | 0.3 | 0.4 | 0.6 | 0.2 | 1.2 | Cc1cccc(C)c1OCCCNCc1cccc(-c2cncnc2)c1 [Compound 558, 3-(2,6-Dimethylphenoxy)-N-(3-(pyrimidin-5-yl)benzyl)propan-1-amine] |
| > 10 | > 10 | > 10 | > 10 | > 10 | > 10 | Cc1nn(C)c(C)c1OCCCNC(c1ccccn1)c1ccccn1 [Compound 644, N-(Dipyridin-2-ylmethyl)-3-(1,3,5-trimethyl-1H-pyrazol-4-yloxy)propan-1-amine] |
| 7.6 | 2 | > 10 | ~10 | 4.2 | > 10 | Cc1cccc(C)c1OCCCNCc1ccccn1 [Compound 523, 3-(2,6-Dimethylphenoxy)-N-(pyridin-2-ylmethyl)propan-1-amine] |
| > 30 | > 30 | > 30 | 9.3 | 3.2 | > 30 | Cc1cccc(C)c1OCCCNCc1cccc(-c2ccc(F)cc2)c1 [Compound 557, 3-(2,6-Dimethylphenoxy)-N-((4′-fluorobiphenyl-3-yl)methyl)propan-1-amine] |
| 1 | 0.3 | 1.6 | 1.2 | 0.2 | 3.6 | Cc1cccc(C)c1OCCCNC(C)c1ccccc1 (stereo not drawn) [Compound 553, 3-(2,6-Dimethylphenoxy)-N-(1-phenylethyl)propan-1-amine] |
| > 10 | 7.1 | > 10 | > 10 | 5 | > 10 | CC(=O)Nc1ccc(CNCCCOc2c(C)cccc2C)cc1 [Compound 542, N-(4-((3-(2,6-Dimethylphenoxy)propylamino)methyl)phenyl)acetamide] |
| 1.7 | 0.8 | 2.9 | 2.9 | 1.1 | 7.8 | COc1ccccc1CNCCCOc1c(C)cccc1C [Compound 530, 3-(2,6-Dimethylphenoxy)-N-(2-methoxybenzyl)propan-1-amine] |
| 4.1 | 2.3 | 8.1 | 7.1 | 2.1 | > 10 | Cc1cccc(C)c1OCCCNCc1ccccc1C(F)(F)F [Compound 534, 3-(2,6-Dimethylphenoxy)-N-(2-(trifluoromethyl)benzyl)propan-1-amine] |
| 2 | 1.1 | 5.6 | 4.9 | 2.1 | ~10.1 | Cc1cccc(C)c1OCCCNCc1ccccc1F [Compound 551, 3-(2,6-Dimethylphenoxy)-N-(2-fluorobenzyl)propan-1-amine] |
| > 10 | > 10 | > 10 | > 10 | ~10.2 | > 10 | Cc1cccc(C)c1OCCCNCc1noc(C(C)C)n1 [Compound 538, 3-(2,6-Dimethylphenoxy)-N-((5-isopropyl-1,2,4-oxadiazol-3-yl)methyl)propan-1-amine] |
| 2.2 | 1.4 | 4.5 | 8.4 | 2.8 | ~10.2 | Cc1cccc(C)c1OCCCNCc1ccc(F)cc1 [Compound 521, 3-(2,6-Dimethylphenoxy)-N-(4-fluorobenzyl)propan-1-amine] |
| > 10 | > 10 | > 10 | > 10 | > 10 | > 10 | Cc1n[nH]c(C)c1OCCCNC(c1ccccn1)c1ccccn1 [Compound 642, 3-(3,5-Dimethyl-1H-pyrazol-4-yloxy)-N-(dipyridin-2-ylmethyl)propan-1-amine] |
| > 1000 | > 1000 | > 1000 | > 1000 | > 1000 | > 1000 | Cc1cccc(C)c1OCCCNCc1ccc(-c2ccccc2)cc1 [Compound 522, N-(Biphenyl-4-ylmethyl)-3-(2,6-dimethylphenoxy)propan-1-amine] |
| > 10 | 3.7 | > 10 | > 10 | 9.3 | > 10 | Cc1cccc(C)c1OCCCNCc1c2ccccc2nn1Cc1ccccc1 [Compound 555, N-((2-Benzyl-2H-indazol-3-yl)methyl)-3-(2,6-dimethylphenoxy)propan-1-amine] |
| 142 | 80.5 | 287 | 2.3 | 1.2 | 23.5 | Cc1cccc(C)c1OCCCNCc1nn(Cc2ccccc2)c2ccccc12 [Compound 540, N-((1-Benzyl-1H-indazol-3-yl)methyl)-3-(2,6-dimethylphenoxy)propan-1-amine] |
| > 10 | > 10 | > 10 | > 10 | > 10 | > 10 | Cc1cccc(C)c1OCCCNCc1cc(C(C)(C)C)cc(C(C)(C)C)c1 [Compound 559, N-(3,5-Di-tert-butylbenzyl)-3-(2,6-dimethylphenoxy)propan-1-amine] |
| > 10 | > 10 | > 10 | > 10 | > 10 | > 10 | Cc1n[nH]c(C)c1OCCCNCc1cccc(-c2cncnc2)c1 [Compound 643, 3-(3,5-Dimethyl-1H-pyrazol-4-yloxy)-N-(3-(pyrimidin-5-yl)benzyl)propan-1-amine] |
| 1.3 | 0.1 | > 30 | 1.2 | 0.1 | > 30 | Cc1cccc(C)c1OCCCNC(c1ccccn1)c1ccccn1 [Compound 562, 3-(2,6-Dimethylphenoxy)-N-(dipyridin-2-ylmethyl)propan-1-amine] |
| 2.9 | 2 | 5.2 | 1.8 | 0.5 | 3.3 | Cc1cccc(C)c1OCCCNCc1ccccc1 [Compound 518, N-Benzyl-3-(2,6-dimethylphenoxy)propan-1-amine] |
| 4.3 | 2.3 | 7.1 | 6.1 | 2 | ~10.1 | 3-(2,6-Dimethylphenoxy)-N-(3-(trifluoromethyl)benzyl)propan-1-amine [Compound 533] |
| > 10 | > 10 | > 10 | > 10 | 4.4 | > 10 | Cc1cccc(C)c1OCCCNCc1cc(Cl)c(O)c(Cl)c1 [Compound 504, 2,6-Dichloro-4-((3-(2,6-dimethylphenoxy)propylamino)methyl)phenol] |
| 4.7 | 2.3 | 6.9 | 9.5 | 3.5 | > 10 | Cc1cccc(C)c1OCCCNCc1ccc(C(F)(F)F)cc1 [Compound 526] |
| 3.2 | 1.8 | 7.9 | 1.5 | 0.4 | 4.8 | COc1cccc(CNCCCOc2c(C)cccc2C)c1 [Compound 525, 3-(2,6-Dimethylphenoxy)-N-(3-methoxybenzyl)propan-1-amine] |
| 4.8 | 2.2 | > 10 | 5.1 | 2.2 | > 10 | Cc1cccc(C)c1OCCCNCc1ccc(O)cc1 [Compound 550, 4-((3-(2,6-Dimethylphenoxy)propylamino)methyl)phenol] |
| 56.3 | 40.9 | 138 | 3.6 | 1.4 | 12.5 | Cc1cccc(C)c1OCCCNCc1ccc(OC(F)(F)F)cc1 [Compound 531, 3-(2,6-Dimethylphenoxy)-N-(4-(trifluoromethoxy)benzyl)propan-1-amine] |
| > 1000 | > 1000 | > 1000 | 20.7 | 7 | 66.5 | Cc1cccc(C)c1OCCCNCc1cccc(-c2ccccc2)c1 [Compound 535, N-(Biphenyl-3-ylmethyl)-3-(2,6-dimethylphenoxy)propan-1-amine] |
